In paper PMC11046469, “Leveraging a Phage-Encoded Noncanonical Amino Acid: A Novel Pathway to Potent and Selective Epigenetic Reader Protein Inhibitors” (ACS Central Science, 2024):
“And” between values parts separate entries of the source, which are not always exact repeats. Equal values may be shown once. Where a SMILES comes first, the peptide text is derived from it. The star is where a group is joined. Oxazole(5-CO) = O=C(c1cnco1)*; Crotonyl(E) = C/C=C/C(=O)*; 2Furoyl = O=C(c1ccco1)*; Butyryl = CCCC(=O)*

Target: T1, ENL YEATS domain (His-ENL) (Homo sapiens, UniProt Q03111)
T1 construct: (aa 1−148) was cloned in pET19b; made in house; host or cells: E. coli BL21(DE3pLysS)
T1 sequence (Q03111 1-148): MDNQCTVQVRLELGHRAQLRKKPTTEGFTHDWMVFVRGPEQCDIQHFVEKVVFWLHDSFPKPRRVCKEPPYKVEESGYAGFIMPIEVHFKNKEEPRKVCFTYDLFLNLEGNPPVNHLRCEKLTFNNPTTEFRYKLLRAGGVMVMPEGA
Experiment: Biolayer interferometry (BLI) binding to ENL YEATS
Conditions: for Selectivity (ENL:AF9) from BLI KD values: ratio KD,AF9 / KD,ENL
Description: To test the inhibition potency of the two selected peptides for the ENL YEATS domain, ENL-S1 and ENL-S2 were chemically synthesized through solid-phase peptide synthesis (SPPS) and evaluated by an AlphaScreen assay. In this assay, a biotinylated H3K27cr peptide and a 6xHis-tagged ENL YEATS domain (His-ENL YEATS) were immobilized on PerkinElmer streptavidin donor and nickel-chelating (Ni-NTA) acceptor beads, respectively. The use of a His-ENL YEATS instead of the original AviSUMO-ENL YEATS construct in the assay prevents potential false positive results derived from ligands which bind to the SUMO protein but not to the ENL YEATS domain. […] We then assessed the binding affinity of two ligands for the ENL YEATS domain using biolayer interferometry (BLI). Briefly, His-ENL was immobilized onto Ni-NTA functionalized biosensors to measure the binding kinetics of target peptides at different concentrations. […] As a small peptide directly selected from a phage display library, this level of high potency was unexpected. […] However, shorter-than-10-mer linear peptides with nanomolar binding potency have rarely been directly selected from phage display libraries. One example was S2P03, a 7-mer peptide that has a KD value as 49 ± 9 nM to bind to SIRT2.[10] This peptide contained BuK and was identified also from a BuK-containing phage display library using the active site-directed ligand selection technique. Taken together, the two examples confirmed that utilizing phage display libraries incorporated with a ncAA serving as a ligand for a protein target for active site-directed ligand selection is a successful method for identifying ultrahigh potency ligands for epigenetic proteins including both enzymes and readers. For ENL-S1 and ENL-S2, their determined kon and koff values were 6.23 ± 0.07 × 10^4 M^–1 s^–1, […] and […], 5.54 ± 0.02 × 10^–3 s^–1, respectively. Compared to ENL-S2, ENL-S1 has faster binding to the ENL YEATS domain and slower release from it, indicating its potential long-term action on the ENL YEATS inhibition. […]
Biolayer Interferometry to Validate ENL Ligands:
His-ENL, His-AF9 (aa 1-149, EpiCypher), His-GAS41 (aa 15-160, EpiCypher), and YEATS2-His (aa 200-345, EpiCypher) were reconstituted in water and diluted into assay buffer (20mM Tris, 300 mM NaCl, pH 7.9) for immobilization onto Octet Ni-NTA biosensors (Sartorius). Lyophilized peptides were dissolved in DMF and diluted to designated concentrations in assay buffer. Biolayer interferometry assays were performed in 96 well plates (GreinerBio-One, polypropylene, flat-bottom) using an Octet Red96 System (Sartorius). Wells were filled with 200 μL of assay buffer, blocking buffer (assay buffer + 0.1% BSA), protein solution, peptide solution, regeneration solution, and reload solution. For immobilization, His-tagged proteins were immobilized onto Ni-NTA sensors at 20 for 600 s. Sensors were then dipped into blocking buffer for 180 s, assay […] buffer for 300 s, peptide solution for 300 s, and back to assay buffer for 300 s. If multiple samples were tested, Ni-NTA sensors can be reconditioned in regeneration (10 mM glycine, pH 1.7) solution followed by reload solution (10 mM NiCl2) for 30 and 60 s, respectively. Measurements were carried out at 30 °C. Data were analyzed within the ForteBio Data Analysis software. Data were processed by double subtracting ligand only and protein only reference wells and aligning the data to the beginning of the association. Then, global kinetic fit was performed for all sensogram curves with a 1:1 model. Steady state KD values were reported.
AlphaScreen Assay with Biotinylated-ENL-S1:
The AlphaScreen assay was carried out in 384-well plates. Manual assay setup was performed in a 40 uL reaction buffer (50 mM HEPES pH 7.4, 100 mM NaCl, 0.1% bovine serum albumin, and 0.05% CHAPS). 10 µL of varying concentrations of His-ENL YEATS (0-300 nM) and 10 µL of […]

## C/C=C/C(=O)NCCCC[C@H](NC(=O)[C@H](Cc1ccc(O)cc1)NC(=O)[C@H](CS)NC(=O)[C@H](Cc1ccc(O)cc1)NC(=O)[C@@H](NC(=O)[C@H](CC(=O)O)NC(=O)[C@@H](N)Cc1ccc(O)cc1)C(C)C)C(N)=O [ENL-S1c] (H-YDVYCYK(Crotonyl(E))-NH2)
BLI
  Kd: 16.2 nM
  Selectivity (ENL:AF9) from BLI KD values: 9.1 fold

## CC(C)[C@H](NC(=O)[C@H](CC(=O)O)NC(=O)[C@@H](N)Cc1ccc(O)cc1)C(=O)N[C@@H](Cc1ccc(O)cc1)C(=O)N[C@@H](CS)C(=O)N[C@@H](Cc1ccc(O)cc1)C(=O)N[C@@H](CCCCNC(=O)c1cnco1)C(N)=O [ENL-S1o] (H-YDVYCYK(Oxazole(5-CO))-NH2)
BLI
  Kd: 2 nM
  Selectivity (ENL:AF9) from BLI KD values: 27.6 fold

## CCCC(=O)NCCCC[C@H](NC(=O)[C@H](Cc1ccc(O)cc1)NC(=O)[C@H](CS)NC(=O)[C@H](Cc1ccc(O)cc1)NC(=O)[C@@H](NC(=O)[C@H](CC(=O)O)NC(=O)[C@@H](N)Cc1ccc(O)cc1)C(C)C)C(N)=O [ENL-S1] (H-YDVYCYK(Butyryl)-NH2)
BLI
  Kd: 36.3 nM and 36 nM
  kon: 62300 ± 7e+06 M⁻¹ s⁻¹
  Selectivity (ENL:AF9) from BLI KD values: 5.6 fold

## CC(C)[C@H](NC(=O)[C@H](CC(=O)O)NC(=O)[C@@H](N)Cc1ccc(O)cc1)C(=O)N[C@@H](Cc1ccc(O)cc1)C(=O)N[C@@H](CS)C(=O)N[C@@H](Cc1ccc(O)cc1)C(=O)N[C@@H](CCCCNC(=O)c1ccco1)C(N)=O [ENL-S1f] (H-YDVYCYK(2Furoyl)-NH2)
BLI
  Kd: 10.3 nM
  Selectivity (ENL:AF9) from BLI KD values: 14.0 fold
